Test results: patent US11312719B2, “9-substituted amino triazolo quinazoline derivatives as adenosine receptor antagonists, pharmaceutical compositions and their use” (Merck Sharp & Dohme Corp., priority 2018, dated 2022)

Tests used:
[1] = molecular target: human A2b adenosine receptor (Homo sapiens (Human), UniProt P29275); assay: A2b radioligand filtration binding assay; conditions: membranes from HEK293 cells expressing human A2b receptor
Method: Measurement of A2b Binding Affinity
The reported affinity of the compounds of the invention for the human A2b adenosine receptor was determined experimentally using a radioligand filtration binding assay. This assay measures the amount of binding of a tritiated proprietary A2b receptor antagonist, in the presence and absence of a compound of the invention, to membranes made from HEK293 cells recombinantly expressing the human A2b adenosine receptor (Perkin Elmer, Cat. No. ES-013-C).
148 μL (135 μg/mL) membranes and 2 μL test compounds were transferred to individual wells of a 96-well polypropylene assay plate and incubated for 15 to 30 minutes at room temperature with agitation. Tritiated radioligand was diluted to a concentration of 14 nM in assay buffer (phosphate buffered saline without Magnesium and Calcium, pH 7.4; GE Healthcare Life Sciences, Cat. No. SH30256.01) and then 50 μL of the solution were transferred to each well of the assay plate. To define total and non-specific binding, wells containing 1% DMSO and 20 μM N-ethylcarboxamidoadenosine (Tocris Bioscience, Cat. No. 1691) respectively, were also included. The wells of the assay plate were incubated at room temperature for 60 minutes with agitation, then filtered using a FilterMate Harvester® (Perkin Elmer) or similar equipment through a UniFilter-96® PEI coated plate (Perkin Elmer Cat. No. 6005274 or 6005277). Filtering was achieved by aspirating the contents of the assay plate for 5 seconds, then washing and aspirating the contents three times with ice-cooled wash buffer (assay buffer supplemented with 0.0025% Brij58) and allowing the vacuum manifold to dry the plate for 30 seconds. The filter plate was incubated for at least 1 hour at 55° C. and allowed to dry. The bottom of the filter plate was then sealed with backing tape. 40 μL Ultima Gold™ (Perkin Elmer, Cat. No. 6013329) was added to each well of the filter plate and the top of the plate was sealed with TopSeal-A PLUS® clear plate seal (Perkin Elmer, Cat. No. 6050185). The plates were then incubated for at least 20 minutes, and then the amount of radioactivity remaining in each well was determined using a TopCount® (Perkin Elmer) scintillation counter. After normalization to total and non-specific binding, the percent effect at each compound concentration was calculated. The plot of percent effect versus the log of compound concentration was analyzed electronically using a 4-parameter logistic fit based on the Levenberg-Marquardt algorithm to generate IC50 values.

[2] = molecular target: human A2a adenosine receptor (Homo sapiens (Human), UniProt P29274); assay: A2a receptor affinity radioligand binding assay ([3H] SCH58261); conditions: membranes from HEK293 or CHO cells expressing human A2a receptor
human A2a adenosine receptor, sequence (P29274 whole entry): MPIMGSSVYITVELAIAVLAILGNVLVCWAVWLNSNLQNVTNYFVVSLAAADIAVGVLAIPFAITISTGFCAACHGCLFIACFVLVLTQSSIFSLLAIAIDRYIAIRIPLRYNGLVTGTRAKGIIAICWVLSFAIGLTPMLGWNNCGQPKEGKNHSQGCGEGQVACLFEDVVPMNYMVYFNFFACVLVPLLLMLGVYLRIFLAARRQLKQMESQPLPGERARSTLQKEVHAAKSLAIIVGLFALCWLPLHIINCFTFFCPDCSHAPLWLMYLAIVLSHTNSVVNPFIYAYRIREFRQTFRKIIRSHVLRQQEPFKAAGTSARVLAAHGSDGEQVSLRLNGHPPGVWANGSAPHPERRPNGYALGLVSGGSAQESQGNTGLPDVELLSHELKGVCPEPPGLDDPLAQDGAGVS
Method: The A2a receptor affinity binding assay measured the amount of binding of a tritiated ligand with high affinity for the A2a adenosine receptor to membranes made from HEK293 or CHO cells recombinantly expressing the human A2a adenosine receptor, in the presence of varying concentrations of a compound of the invention.
Measurement of A2a Binding Affinity Using Radioligand Binding
148 μL (5 μg/mL) membranes (Perkin Elmer, Cat. No. RBHA2aM400UA) and 2 μL compounds of the invention to be tested (test compound) were transferred to individual wells of a 96-well polypropylene assay plate and incubated for 15 to 30 minutes at room temperature. [^3H] SCH58261 ((7-(2-phenylethyl)-5-amino-2-(2-furyl)-pyrazolo-[4,3-e]-1,2,4-triazolo[1,5-c]pyrimidine)) was diluted in assay buffer (50 mM Tris pH 7.4, 10 mM MgCl2, 0.005% Tween20) to a concentration of 4 nM and 50 μL transferred to each well of the assay plate. To define total and non-specific binding, wells containing 1% DMSO and 1 μM ZM241385 (Tocris Bioscience, Cat. No. 1036) respectively, were also included. The assay plate was incubated at room temperature for 60 minutes with agitation. Using a FilterMate Harvester® (Perkin Elmer), the contents of the assay plate were filtered through a UniFilter-96® PEI coated plate (Perkin Elmer Cat. No. 6005274 or 6005277). Filtering was achieved by aspirating the contents of the assay plate for 5 seconds, then washing and aspirating the contents three times with ice-cooled wash buffer (50 mM Tris-HCl pH 7.4, 150 mM NaCl) and allowing the vacuum manifold to dry the plate for 30 seconds. The filter plate was incubated for at least 1 hour at 55° C., and allowed to dry. The bottom of the filter plate was sealed with backing tape. 40 μL Ultima Gold™ (Perkin Elmer, Cat. No. 6013329) was added to each well of the filter plate and the top of the plate was sealed with TopSeal-A PLUS® clear plate seal (Perkin Elmer, Cat. No. 6050185). The plate was incubated for at least 20 minutes, and then the amount of radioactivity remaining in each well was determined using a TopCount® (Perkin Elmer) scintillation counter. After normalization to total and non-specific binding, the percent effect at each compound concentration was calculated. The plot of percent effect versus the log of compound concentration was analyzed electronically using a 4-parameter logistic fit based on the Levenberg-Marquardt algorithm to generate IC50 values.

human A2b adenosine receptor, sequence (P29275 whole entry): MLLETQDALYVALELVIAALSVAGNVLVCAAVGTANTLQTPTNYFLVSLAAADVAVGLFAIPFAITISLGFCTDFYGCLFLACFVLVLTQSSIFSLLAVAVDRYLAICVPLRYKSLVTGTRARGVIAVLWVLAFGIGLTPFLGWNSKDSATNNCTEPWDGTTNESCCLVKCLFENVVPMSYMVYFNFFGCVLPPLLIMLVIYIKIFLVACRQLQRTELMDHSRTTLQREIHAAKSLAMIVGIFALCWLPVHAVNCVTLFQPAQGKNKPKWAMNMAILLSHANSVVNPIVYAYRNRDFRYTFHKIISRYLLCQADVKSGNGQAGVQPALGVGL

SMILES | IC50 [1] [nM] | IC50 [2] [nM]
COc1cc(F)cc2c1nc(N)n1nc(C3CCCCN(c4cnn(CC(C)(C)O)c4)C3)nc21 (racemic) [Example 39, rac-1-(4-(3-(5-amino-9-fluoro-7-methoxy-[1,2,4]triazolo [1,5-c]quinazoln-2-yl)azepan-1-yl)-1H-pyrazol-1-yl)-2-methylpropan-2-ol] | 43.3 | 1.1
COc1cc2nc(N)n3nc(C4CCCN(c5cnn(CC(C)(C)O)c5)C4=O)nc3c2cc1F (racemic) [Example 139, rac-3-(5-amino-9-fluoro-8-methoxy-[1,2,4]triazolo[1,5-c]quinazolin-2-yl)-1-(1-(2-hydroxy-2-methylpropyl)-1H-pyrazol-4-yl)piperidin-2-one] | 2820 | 16.8
COc1cc2nc(N)n3nc([C@@H]4CCCN(c5cnn(C(C)C(C)(C)O)c5)C4)nc3c2cc1F (single isomer, unassigned) [Example 12, (S or R)-3-(4-((R)-3-(5-amino-9-fluoro-8-methoxy-[1,2,4]triazolo [1,5-c]quinazolin-2-yl)piperidin-1-yl)-1H-pyrazol-1-yl)-2-methylbutan-2-ol] | 75 | 1.7
COc1cc2nc(N)n3nc([C@@H]4CCCN(c5cnn(C(C)C(C)(C)O)c5)C4)nc3c2cc1F (single isomer, unassigned) [Example 13, (R or S)-3-(4-((R)-3-(5-amino-9-fluoro-8-methoxy-[1,2,4]triazolo[1,5-c]quinazolin-2-yl)piperidin-l-yl)-1H-pyrazol-1-yl)-2-methylbutan-2-ol] | 72.6 | 0.7
COc1cc2nc(N)n3nc(C4CCC(C)N(c5cnn(CC(C)(C)O)c5C)C4)nc3c2cc1F (single isomer, unassigned) [Example 41, 1-(4-((2S,5R or 2R,5S)-5-(5-amino-9-fluoro-8-methoxy-[1,2,4]triazolo[1,5-c]quinazolin-2-yl)-2-methylpiperidin-1-yl)-5-methyl-1H-pyrazol-1-yl)-2-methylpropan-2-ol] | 42.8 | 1.2
COc1cc2nc(N)n3nc(C4CCC(C)N(c5cn(CC(C)(C)O)nc5C)C4)nc3c2cc1F (single isomer, unassigned) [Example 42, 1-(4-((2S,5R or 2R,5S)-5-(5-amino-9-fluoro-8-methoxy-[1,2,4]triazolo[1,5-c]quinazolin-2-yl)-2-methylpiperidin-1-yl)-3-methyl-1H-pyrazol-1-yl)-2-methylpropan-2-ol] | 476 | 4.3
COc1cc2nc(N)n3nc(C4CCC(C)N(c5cnn(C(C)(C)C(C)(C)O)c5)C4)nc3c2cc1F (single isomer, unassigned) [Example 43, 3-(4-((2S,5R or 2R,5S)-5-(5-amino-9-fluoro-8-methoxy-[1,2,4]triazolo[1,5-c]quinazolin-2-yl)-2-methylpiperidin-1-yl)-1H-pyrazol-1-yl)-2,3-dimethylbutan-2-ol] | 3.4 | 0.7
COc1cc2nc(N)n3nc(C4CCC(C)N(c5cnn(C6CCOCC6)c5)C4)nc3c2cc1F (single isomer, unassigned) [Example 44, 9-fluoro-8-methoxy-2-((3R,6S or 3S,6R)-6-methyl-1-(1-(tetrahydro-2H-pyran-4-yl)-1H-pyrazol-4-yl)piperidin-3-yl)-[1,2,4]triazolo[1,5-c]quinazolin-5-amine] | 20.4 | 1.3
COc1cc2nc(N)n3nc(C4CCC(C)N(c5cnn(C6CCOCC6)c5C)C4)nc3c2cc1F (single isomer, unassigned) [Example 45, 9-fluoro-8-methoxy-2-((3R,6S or 3S,6R)-6-methyl-1-(5-methyl-1-(tetrahydro-2H-pyran-4-yl)-1H-pyrazol-4-yl)piperidin-3-yl)-[1,2,4]triazolo[1,5-c]quinazolin-5-amine] | 150 | 1.8
COc1cc2nc(N)n3nc(C4CCC(C)N(c5cn(C6CCOCC6)nc5C)C4)nc3c2cc1F (single isomer, unassigned) [Example 46, 9-fluoro-8-methoxy-24(3R,6S or 3S,6R)-6-methyl-1-(3-methyl-1-(tetrahydro-2H-pyran-4-yl)-1H-pyrazol-4-yl)piperidin-3-yl) [1,2,4]triazolo[1,5-c]quinazolin-5-amine] | 86.4 | 0.6
COc1cc2nc(N)n3nc(C4CCC(C)N(c5cnn(CC6(CF)COC6)c5)C4)nc3c2cc1F (single isomer, unassigned) [Example 47, 9-fluor-2-((3R,6S or 3S,6R)-1-(1((3-(fluoromethyl)oxetan-3-yl)methyl)-1H-pyrazol-4-yl)-6-methylpiperidin-3-yl)-8-methoxy-[1,2,4]triazolo[1,5-c]quinazolin-5-amine] | 284 | 8.2
COc1cc2nc(N)n3nc([C@@H]4CC[C@H](C)N(c5cnn(C(C)C(C)(C)O)c5)C4)nc3c2cc1F (single isomer, unassigned) [Example 48, (R or S)-3-(4-((2S,5R or 2R,5S)-5-(5-amino-9-fluoro-8-methoxy-[1,2,4]triazolo[1,5-c]quinazolin-2-yl)-2-methylpiperidin-1-yl)-1H-pyrazol-1-yl)-2-methylbutan-2-ol] | 17.6 | 0.6
COc1cc2nc(N)n3nc([C@@H]4CC[C@H](C)N(c5cnn([C@@H](C)C(C)(C)O)c5)C4)nc3c2cc1F (single isomer, unassigned) [Example 49, (S or R)-3-(4-((2S,5R or 2R,5S)-5-(5-amino-9-fluoro-8-methoxy-[1,2,4]triazolo[1,5-c]quinazolin-2-yl)-2-methylpiperidin-1-yl)-1H-pyrazol-1-yl)-2-methylbutan-2-ol] | 2.7 | 0.3
COc1cc2nc(N)n3nc([C@H]4CC[C@@H](C)N(c5cn(CC6(O)CCC6)nc5C)C4)nc3c2cc1F (single isomer, unassigned) [Example 50, 1-((4-((2R,5S or 2S,5R)-5-(5-amino-9-fluoro-8-methoxy-[1,2,4]triazolo[1,5-c]quinazolin-2-yl)-2-methylpiperidin-1-yl)-3-methyl-1H-pyrazol-1-yl)methyl)cyclobutan-1-ol] | 1890 | 18.3
COc1cc2nc(N)n3nc([C@H]4CC[C@@H](C)N(c5cnn(CC6(O)CCC6)c5C)C4)nc3c2cc1F (single isomer, unassigned) [Example 51, 1-((4-((2R,5S or 2S,5R)-5-(5-amino-9-fluoro-8-methoxy-[1,2,4]triazolo[1,5-c]quinazolin-2-yl)-2-methylpiperidin-1-yl)-5-methyl-1H-pyrazol-1-yl)methyl)cyclobutan-1-ol] | 2080 | 21
COc1cc2nc(N)n3nc(C4CC(F)CN(c5cnn(CC(C)(C)O)c5)C4)nc3c2cc1F (single isomer, unassigned) [Example 55, 1-(4-((3R,5S or 3S,5R)-3-(5-amino-9-fluoro-8-methoxy-[1,2,4]triazolo[1,5-c]quinazolin-2-yl)-5-fluoropiperidin-1-yl)-1H-pyrazol-1-yl)-2-methylpropan-2-ol] | 500 | 10.6
